Results published in paper PMC7924852, “The Emericellipsins A–E from an Alkalophilic Fungus Emericellopsis alkalina Show Potent Activity against Multidrug-Resistant Pathogenic Fungi” (Journal of Fungi, 2021).

How the values were obtained:
[1] = tested on: Aspergillus niger ATCC 16404; assay: Disc-diffusion antifungal assay; assay type: cell-based; settings: 40 µg/disc; A. niger ATCC 16404
A. niger 1133 m [2] = assay: Disc-diffusion antifungal assay; assay type: cell-based, Aspergillus niger; settings: 40 µg/disc, pathogenic clinical isolate
A. fumigatus VKM F-37 [3] = assay: Disc-diffusion antifungal assay; assay type: cell-based, Aspergillus fumigatus; settings: 40 µg/disc
A. fumigatus 390 m [4] = assay: Disc-diffusion antifungal assay; assay type: cell-based, Aspergillus fumigatus; settings: 40 µg/disc, pathogenic clinical isolate
A. terreus 3 K [5] = assay: Disc-diffusion antifungal assay; assay type: cell-based; settings: 40 µg/disc
A. terreus 497 [6] = assay: Disc-diffusion antifungal assay; assay type: cell-based; settings: 40 µg/disc; A. terreus 497, pathogenic clinical isolate
[7] = tested on: reference and clinical strains of Aspergillus; assay: Disc-diffusion antifungal assay, Aspergillus strains; assay type: cell-based; settings: disc-diffusion, reference and clinical strains of Aspergillus
A. niger ATCC 16404 = assay: Broth two-fold microdilution MIC (CLSI); assay type: cell-based, Aspergillus niger; settings: A. niger ATCC 16404; RPMI 1640 pH 7.0, 35 °C, 48 h, no visible growth
A. niger 1133 m [8] = assay: Broth two-fold microdilution MIC (CLSI); assay type: cell-based, Aspergillus niger; settings: A. niger 1133 m clinical isolate; RPMI 1640 pH 7.0, 35 °C, 48 h
A. terreus 3 K [9] = assay: Broth two-fold microdilution MIC (CLSI); assay type: cell-based; settings: A. terreus 3 K; RPMI 1640 pH 7.0, 35 °C, 48 h
A. terreus 497 [10] = assay: Broth two-fold microdilution MIC (CLSI); assay type: cell-based; settings: A. terreus 497 clinical isolate; RPMI 1640 pH 7.0, 35 °C, 48 h
A. fumigatus VKM F-37 [11] = assay: Broth two-fold microdilution MIC (CLSI); assay type: cell-based, Aspergillus fumigatus; settings: A. fumigatus VKM F-37; RPMI 1640 pH 7.0, 35 °C, 48 h
A. fumigatus 390 m [12] = assay: Broth two-fold microdilution MIC (CLSI); assay type: cell-based, Aspergillus fumigatus; settings: A. fumigatus 390 m clinical isolate; RPMI 1640 pH 7.0, 35 °C, 48 h
[13] = tested on: isolates of Aspergillus spp.; assay: Broth microdilution MIC, ranges over mould isolates; assay type: cell-based; settings: range over opportunistic and clinical isolates of Aspergillus spp. (Table 4)

Substance | Zone of Inhibition [1] [mm] | Zone of Inhibition (A. niger 1133 m [2]) [mm] | Zone of Inhibition (A. fumigatus VKM F-37 [3]) [mm] | Zone of Inhibition (A. fumigatus 390 m [4]) [mm] | Zone of Inhibition (A. terreus 3 K [5]) [mm] | Zone of Inhibition (A. terreus 497 [6]) [mm] | antifungal activity against Aspergillus strains (in words) [7] | Minimal Inhibitory Concentration (MIC) (A. niger ATCC 16404) | Minimal Inhibitory Concentration (MIC) (A. niger 1133 m [8]) | Minimal Inhibitory Concentration (MIC) (A. terreus 3 K [9]) [µg/mL] | Minimal Inhibitory Concentration (MIC) (A. terreus 497 [10]) [µg/mL] | Minimal Inhibitory Concentration (MIC) (A. fumigatus VKM F-37 [11]) | Minimal Inhibitory Concentration (MIC) (A. fumigatus 390 m [12]) | MIC range [13] [µg/mL]
Methyldecanoyl-MePro-AHMOD-Ala-Aib-Ile-Aib-βAla-Alaol-Glyol [EmiB, emericellipsin B, homologue of emericellipsin A, nonribosomal peptaibol] | 10 ± 0.13 | 11 ± 0.170 | 0 | 0 | 0 | 0 | low activity only against A. niger strains | 8 µg/mL | 8 µg/mL | 4 | 4 | 8 µg/mL | 8 µg/mL | 4 to 8
Methyldecanoyl-MePro-AHMOD-Ala-Aib-Ile-Iva-βAla-Aib-Glyol [EmiE, emericellipsin E, homologue of emericellipsin A, nonribosomal peptaibol] | 0 | 0 | 0 | 0 | 0 | 0 | totally inactive | ˃64 µg/mL | ˃64 µg/mL | 32 | 64 | ˃64 µg/mL | ˃64 µg/mL | > 64
Methyldecanoyl-MePro-AHMOD-Ala-Iva-Ile-Iva-βAla-Alaol-Glyol [EmiD, emericellipsin D, homologue of emericellipsin A, nonribosomal peptaibol] | 0 | 0 | 0 | 0 | 0 | 0 | totally inactive | ˃64 µg/mL | ˃64 µg/mL | 16 | 16 | 32 µg/mL | 32 µg/mL | 16 to 32
